From PubChem BioAssay (NCI)
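Dose response: 5 concentrations. Exposure: 48 h. Format: 96-well plates. Endpoint: linear interpolation; highest concentration if not reached. TGI marks complete inhibition of growth.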

Key:
Experiment in all cases: DTP human tumour cell line panel, 48 h
[1] = system: LOX IMVI melanoma
[2] = system: HL-60(TB) leukemia
[3] = system: DU-145 prostate
[4] = system: PC-3 prostate
[5] = system: HOP-62 NSCLC
[6] = system: OVCAR-5 ovarian
[7] = system: OVCAR-4 ovarian
[8] = system: ACHN renal
[9] = system: A498 renal
[10] = system: HCT-116 colon

| Compound | TGI [1] [µM] | TGI [2] [µM] | TGI [3] [µM] | TGI [4] [µM] | TGI [5] [µM] | TGI [6] [µM] | TGI [7] [µM] | TGI [8] [µM] | TGI [9] [µM] | TGI [10] [µM] |
| --- | --- | --- | --- | --- | --- | --- | --- | --- | --- | --- |
| COC(=O)N[C@H](C(=O)O)C(C)O[Si](C)(C)C(C)(C)C (some centres not stated) | > 100 | > 100 | > 100 | > 100 | > 100 | > 100 | > 100 | > 100 | > 100 | > 100 |
| NCC(O)CNC(=O)c1ccc(-c2ccc(-c3ccc(C(=O)NCC(O)CN)cc3)o2)cc1 (configuration not stated) | > 100 | > 100 | 50.6 | 48.3 | 74.4 | > 100 | > 100 | > 100 | 73.5 | 52.4 |
| C=C1CC(Cn2ccc(=O)[nH]c2=O)(c2ccc(Cl)cc2)OC1=O (configuration not stated) | 5.94 | > 100 | 23.2 | 19.2 | 36.4 | 30.5 | 3.61 | 10.4 | 32.4 | 5.63 |
| COc1ccc2c3c([nH]c2c1)CCN(CCCC(=O)c1ccc(F)cc1)C3 | 26.7 | 33.2 | 33.9 | 25.6 | 27 | 27.1 | 32.2 | 30.8 | 29.7 | 25 |
| O=C1CC[C@@]2(O)[C@H]3Cc4ccc(-c5ccccc5)c5c4[C@@]2(CCN3CC2CC2)[C@H]1O5 | 32.8 | 37.3 | 62.7 | 46.7 | 40.6 | 35.4 | > 100 | 42.4 | 36.6 | 32 |
| CC(C)=CCc1[nH]c2ccccc2c1C1=C(O)C(=O)C(c2c(CC=C(C)C)[nH]c3ccccc23)=C(O)C1=O | 4.22 | 5.6 | 10.9 | 4.72 | 2.61 | 8.44 | 93.1 | 3.95 | 2.72 | 3.78 |
| Clc1cccc(NN=Nc2ccc(-c3nc4ccccc4s3)cc2)c1 | > 100 | 27.2 | > 100 | > 100 | > 100 | > 100 | > 100 | > 100 | > 100 | > 100 |
| Cn1c(CO)ccc1-c1ccc(-c2ccc[se]2)[se]1 | > 100 | > 63.2 | 58 | > 100 | 55.1 | – | 39.5 | > 100 | 0.187 | – |
| CCCCCCCCCCCCCCC(O)C[N+](C)(CCO)CCO (configuration not stated) | 4.66 | 2.71 | 23.6 | 4.31 | 10.3 | 7.92 | 17 | 21.7 | 22.6 | 23.8 |
| CC(C)(C)c1cc(OCc2nn3c(Cc4ccccc4)nnc3s2)c(Cl)cc1OCc1nn2c(Cc3ccccc3)nnc2s1 | > 100 | 97.9 | > 100 | > 100 | > 100 | > 100 | > 100 | > 100 | > 100 | > 100 |
| CC(=O)Oc1c(N2CCCCC2)c(C(=O)c2ccccc2)c(O)c2ccn(N(C)C)c12 | 33.1 | 29.5 | 56.6 | 33.7 | 93.2 | > 100 | 58.2 | 40.2 | 29.1 | 22.5 |
| Cn1ncc2c(Cl)ncnc21 | > 100 | > 100 | > 100 | > 100 | > 100 | > 100 | > 100 | > 100 | > 100 | > 100 |
| Nc1nc(Cl)cc(NC2(CO)CCC2)n1 | > 100 | > 100 | > 100 | > 100 | > 100 | > 100 | > 100 | > 100 | > 100 | > 100 |
| CC(=O)Oc1ccc2c(c1)CC[C@@H]1C2[C@@H](O[N+](=O)[O-])C[C@@]2(C)C1CC[C@@H]2O[N+](=O)[O-] (some centres not stated) | 28.9 | 53.6 | 28.3 | 22.9 | 15.5 | 33.7 | 33.3 | 22 | 32.8 | 23.2 |
| CCOC(=O)C(NC(=O)c1ccccc1)(N1CCN(c2cc3c(cc2F)c(=O)c(C(=O)O)cn3CC)CC1)C(F)(F)F (configuration not stated) | 35.4 | 43 | > 100 | > 100 | > 100 | 45.3 | > 100 | > 100 | 65.2 | > 100 |
| CCOC(=O)Nc1ccc2c(c1)c(CCCCCCc1nc3ccccc3c3ccc(NC(=O)OCC)cc13)nc1ccccc12 | 42.5 | > 100 | > 100 | > 100 | 64.2 | > 100 | 74.2 | > 100 | 67.3 | > 100 |
| Cc1nc(C)c(N2CCNCC2)c(=O)[nH]1 | > 100 | > 100 | > 100 | > 100 | > 100 | – | > 100 | > 100 | > 100 | > 100 |
